Assay results taken from patent US11802127B2, “3,4-dihydro-2,7-naphthyridine-1,6(2H,7H)-diones as MEK inhibitors” (Pfizer Inc., priority 2021, dated 2023).

Tests used:
[1] = MDR1 LLC-PK1 and BCRP MDCKII Permeability Assay: permeability coefficient (Papp); format: in vitro ADME; conditions: MDCK, test article 1 μM, 37° C.
Description: (§1) Both LLC-PK1 and MDR1 transfected LLC-PK1 cells were cultured and plated according to manufacturer's recommendations with the exception that the passage media contained only 2% fetal bovine serum to extend passage time out to seven days.
(§2) BCRP transfected MDCKII canine P-gp knockout cell line was cultured and plated according to manufacturer's recommendations.
(§3) Both positive and negative controls were used to assess functionality of P-gp or BCRP efflux in the assays. Stock solutions for assay controls and the test article were prepared in DMSO for final test concentrations of 10 and 1 μM, respectively. Final organic concentration in the assay was 1%. All dosing solutions contained 10 μM lucifer yellow to monitor LLC-PK1 or MDCKII cell monolayer integrity.
(§4) For the apical to basolateral determination (A to B), 75 μL of the test article in transport buffer were added to the apical side of the individual transwells and 250 μL of basolateral media, without compound or lucifer yellow, were added to each well. For the basolateral to apical determination (B to A), 250 μL of test article in transport buffer were added to each well and 75 μL transport buffer, without compound or lucifer yellow, were added to each transwell. All tests were performed in triplicate, and each compound was tested for both apical to basolateral and basolateral to apical transport. The plates were incubated for 2 hours on a Lab-Line Instruments Titer Orbital Shaker (VWR, West Chester, PA) at 50 rpm and 37° C. with 5% CO2. All culture plates were removed from the incubator and 50 μL of media were removed from the apical and basolateral portion of each well and added to 150 μL of 1 μM labetalol in 2:1 acetonitrile (acetonitrile): H2O, v/v.
(§5) The plates were read using a Molecular Devices (Sunnyvale, CA) Gemini Fluorometer to evaluate the lucifer yellow concentrations at excitation/emission wavelengths of 425/535 nm. These values were accepted when found to be below 2% for apical to basolateral and 5% basolateral to apical flux across the MDR1-transfected LLC-PK1 or BCRP-transfected MDCKII cell monolayers. The plates were sealed and the contents of each well analyzed by LC-MS/MS. The compound concentrations were determined from the ratio of the peak areas of the compound to the internal standard (labetalol) in comparison to the dosing solution.
(§6) The LC-MS/MS system was comprised of an HTS-PAL autosampler (Leap Technologies, Carrboro, NC), an HP1200 HPLC (Agilent, Palo Alto, CA), and a MDS Sciex 4000 Q Trap system (Applied Biosystems, Foster City, CA). […] The total run time, including re-equilibration, for a single injection was 1.2 minutes. Mass spectrometric detection of the analytes was accomplished using the ion spray positive mode. Analyte responses were measured by multiple reaction monitoring (MRM) of transitions unique to each compound (the protonated precursor ion and selected product ions for each test article and m/z 329 to m/z 162 for labetalol, the internal standard).

P-gp (MDR1) = target: T1, P-gp (MDR1) (Homo sapiens, UniProt P08183); assay: Efflux ratio in MDR1 transfected LLC-PK1 cells; format: in vitro ADME; conditions: pig, Papp(B−A)/Papp(A−B)
T1 construct: expressed in transfected cells; host or cells: LLC-PK1 (porcine kidney) cells transfected with MDR1
Description: as §1, §3, §4, §5, §6
(§7) An efflux ratio is calculated from the mean apical to basolateral (A−B) Papp data and basolateral to apical (B−A) Papp data: Efflux ratio=Papp(B−A)/Papp(A−B)

[2] = test system: ERK1/2(Thr202/Tyr204) phosphorylation (MEK-dependent) in A375 cells; assay: Cellular Phospho-p44/42 MAPK (Erk1/2) (Thr202/Tyr204) Assay; format: cell-based; conditions: Homo sapiens, A-375, 1-hour incubation, pERK1/2 (Thr202/Tyr204) In-Cell Western normalized to GAPDH
Description: Inhibition of ERK1/2(Thr202/Tyr204) phosphorylation was determined by the following cellular assay, which comprises incubating cells with a compound for 1 hour and quantifying pERK signal by In-Cell Western on fixed cells and normalizing to GAPDH signal. A375 cells were obtained from the ATCC and grown in DMEM supplemented with 10% fetal bovine serum, penicillin/streptomycin, Glutamax®, non-essential amino acids, and sodium pyruvate. Cells were plated in 96-well plates at 30,000 cells/well and allowed to attach overnight at 37° C./5% CO2. Cells were treated with compounds prepared as a 10-point, 1:3 dilution series (range: 20 μM-0.05 nM; maximum concentration varied from 20 μM-1 μM), with a final DMSO concentration of 0.5%. Control wells contained either 0.5% DMSO alone (no inhibition control) or 1 μM of a potent control compound (complete inhibition control). After a 1-hour incubation, cells were fixed in 3.7% formaldehyde in dPBS (Dulbecco's phosphate-buffered saline) at room temperature for 20 minutes. Cells were then washed with dPBS and permeabilized in 100% MeOH at room temperature for 10 minutes. Following permeabilization, cells were washed in dPBS and incubated in LI-COR Blocking Buffer (LI-COR Biosciences, Cat #927-40000) for 1 hour or longer. Plates were then incubated with an antibody specific for the MEK-dependent ERK1/2 phosphorylation sites, threonine 202 and tyrosine 204 (Cell Signaling Technologies; Cat #9101), downstream of MEK in the MAP kinase signal transduction pathway, as well as GAPDH (Millipore; Cat #MAB374). pErk1/2 (Thr202/Tyr204) antibody was diluted in LI-COR blocking buffer containing 0.05% Tween-20 at 1:250; GAPDH was diluted at 1:2,500. The plates were incubated overnight at 4° C. After washing with PBS/0.05% Tween-20, the cells were incubated with fluorescently-labeled secondary antibodies (Anti-rabbit-Alexa Flour680, Invitrogen Cat #A21109; Anti-mouse-IRDye800CW, LI-COR Biosciences Cat #926-32210, both at 1:1000 dilution) for 1 hour. Cells were then washed, as above, and analyzed for fluorescence at both 680 and 800 nm wavelengths using the Odyssey CLx Infrared Imaging System (LI-COR Biosciences). Phosphorylated Erk1/2 (Thr202/Tyr204) signal was normalized to GAPDH signal for each well.

BCRP (hBCRP) = target: T2, BCRP (hBCRP) (Homo sapiens, UniProt Q9UNQ0); assay: Efflux ratio in BCRP transfected MDCKII canine P-gp knockout cells; format: in vitro ADME; conditions: Papp(B−A)/Papp(A−B), read-out: Efflux ratio MDCKII-hBCRP knock-in,canine pg-P KO
T2 construct: expressed in transfected cells; host or cells: MDCKII (canine kidney) cells, canine P-gp knockout, transfected with BCRP
T2 sequence (Q9UNQ0 1-655): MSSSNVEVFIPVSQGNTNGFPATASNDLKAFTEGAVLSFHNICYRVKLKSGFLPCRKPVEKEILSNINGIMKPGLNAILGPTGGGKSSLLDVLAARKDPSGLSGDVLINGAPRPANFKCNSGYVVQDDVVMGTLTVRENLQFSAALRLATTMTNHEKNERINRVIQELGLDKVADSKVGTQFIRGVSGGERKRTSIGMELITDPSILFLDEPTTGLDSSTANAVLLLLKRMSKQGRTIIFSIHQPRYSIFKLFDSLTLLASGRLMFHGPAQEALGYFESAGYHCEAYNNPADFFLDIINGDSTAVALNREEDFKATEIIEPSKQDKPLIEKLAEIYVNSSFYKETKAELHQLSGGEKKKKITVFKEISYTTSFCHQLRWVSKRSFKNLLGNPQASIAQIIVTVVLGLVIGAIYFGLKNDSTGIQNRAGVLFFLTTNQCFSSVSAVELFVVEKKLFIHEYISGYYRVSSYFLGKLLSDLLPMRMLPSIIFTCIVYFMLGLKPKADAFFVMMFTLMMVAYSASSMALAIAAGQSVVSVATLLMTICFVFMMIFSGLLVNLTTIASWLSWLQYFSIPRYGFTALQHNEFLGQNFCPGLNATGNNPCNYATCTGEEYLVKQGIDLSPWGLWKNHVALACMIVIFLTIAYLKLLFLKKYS
Description: as §2, §3, §4, §5, §6, §7

T1 sequence (P08183 whole entry): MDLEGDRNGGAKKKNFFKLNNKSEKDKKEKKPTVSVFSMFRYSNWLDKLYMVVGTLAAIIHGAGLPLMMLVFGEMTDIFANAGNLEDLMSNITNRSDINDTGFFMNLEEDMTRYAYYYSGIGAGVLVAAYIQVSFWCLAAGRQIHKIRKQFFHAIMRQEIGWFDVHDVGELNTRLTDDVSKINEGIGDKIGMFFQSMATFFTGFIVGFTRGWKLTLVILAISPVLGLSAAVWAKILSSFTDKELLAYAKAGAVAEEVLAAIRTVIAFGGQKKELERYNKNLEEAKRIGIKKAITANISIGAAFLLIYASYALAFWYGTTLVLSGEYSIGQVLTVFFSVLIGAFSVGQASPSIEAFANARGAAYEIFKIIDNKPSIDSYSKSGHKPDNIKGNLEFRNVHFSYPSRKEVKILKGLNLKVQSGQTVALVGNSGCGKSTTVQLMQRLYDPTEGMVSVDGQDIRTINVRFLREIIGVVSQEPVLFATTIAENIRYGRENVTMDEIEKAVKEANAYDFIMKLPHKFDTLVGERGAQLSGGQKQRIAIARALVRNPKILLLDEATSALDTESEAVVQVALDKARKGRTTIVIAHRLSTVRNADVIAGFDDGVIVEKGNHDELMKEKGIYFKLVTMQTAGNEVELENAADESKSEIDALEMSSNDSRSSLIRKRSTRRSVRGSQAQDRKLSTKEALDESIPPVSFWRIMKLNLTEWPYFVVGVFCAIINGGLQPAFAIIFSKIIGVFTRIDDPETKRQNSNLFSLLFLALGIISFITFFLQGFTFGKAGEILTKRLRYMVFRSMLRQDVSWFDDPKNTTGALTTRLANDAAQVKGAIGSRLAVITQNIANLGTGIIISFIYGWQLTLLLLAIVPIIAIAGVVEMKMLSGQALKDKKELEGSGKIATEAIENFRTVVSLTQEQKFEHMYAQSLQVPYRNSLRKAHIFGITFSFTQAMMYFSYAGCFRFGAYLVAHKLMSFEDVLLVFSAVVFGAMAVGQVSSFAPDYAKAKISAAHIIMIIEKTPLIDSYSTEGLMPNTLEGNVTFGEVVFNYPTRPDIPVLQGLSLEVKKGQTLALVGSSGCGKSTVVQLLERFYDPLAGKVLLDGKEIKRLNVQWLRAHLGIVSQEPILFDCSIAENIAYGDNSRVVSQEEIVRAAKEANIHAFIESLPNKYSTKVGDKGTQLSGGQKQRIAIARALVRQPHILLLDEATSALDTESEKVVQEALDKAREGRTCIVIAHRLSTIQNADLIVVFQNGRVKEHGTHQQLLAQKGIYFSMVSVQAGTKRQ

Papp at 2 h, 1 μM [1] [×10⁻⁶ cm/s]	efflux ratio at 2 h, 1 μM (P-gp (MDR1))	efflux ratio at 2 h, 1 μM (BCRP (hBCRP))	Compound	IC50 [2] [nM]
12.5	–	0.8	CSc1ccc(Nc2c3c(cc(=O)n2C)C(c2ccccc2)CNC3=O)c(F)c1 (centres unmarked) [Example 65, 8-((2-fluoro-4-(methylthio)phenyl)amino)-7-methyl-4-phenyl-3,4-dihydro-2,7-naphthyridine-1,6(2H,7H)-dione]	2
24.9	–	1	CC1CNC(=O)c2c1cc(=O)n(C)c2Nc1ccc(Br)cc1F (centres unmarked) [Example 66, 8-((4-bromo-2-fluorophenyl)amino)-4,7-dimethyl-3,4-dihydro-2,7-naphthyrdine-1,6(2H,7H)-dione]	27
28.3	–	1.1	CSc1ccc(Nc2c3c(cc(=O)n2C)C(C)CNC3=O)c(F)c1 (centres unmarked) [Example 67, 8-((2-fluoro-4-(methylthio)phenyl)amino)-4,7-dimethyl-3,4-dihydro-2,7-naphthyrdine-1,6(2H,7H)-dione]	8
18.7	–	2.5	CC1CN(OCCO)C(=O)c2c1cc(=O)n(C)c2Nc1ccc(Br)cc1F (centres unmarked) [Example 68, 8-((4-bromo-2-fluorophenyl)amino)-2-(2-hydroxyethoxy)-4,7-dimethyl-3,4-dihydro-2,7-naphthyridine-1,6(2H,7H)-dione]	3
19.6	–	2.3	CSc1ccc(Nc2c3c(cc(=O)n2C)C(C)CN(OCCO)C3=O)c(F)c1 (centres unmarked) [Example 69, 8-((2-fluoro-4-(methylthio)phenyl)amino)-2-(2-hydroxyethoxy)-4,7-dimethyl-3,4-dihydro-2,7-naphthyridine-1,6(2H,7H)-dione]	2

The next lines start with the compound.

Compound	Papp at 2 h, 1 μM [1] [×10⁻⁶ cm/s]	efflux ratio at 2 h, 1 μM (P-gp (MDR1))	efflux ratio at 2 h, 1 μM (BCRP (hBCRP))	IC50 [2] [nM]
Cn1c(Nc2ccc(Br)cc2F)c2c(cc1=O)CCN(C1CC1)C2=O [Example 1]	27.2	1.4	1.1	562
CCON1CCc2cc(=O)n(C)c(Nc3ccc(Br)cc3F)c2C1=O [Example 3, 8-((4-bromo-2-fluorophenyl)amino)-2-ethoxy-7-methyl-3,4-dihydro-2,7-naphthyridine-1,6(2H,7H)-dione]	46.2	1	0.9	456
CSc1ccc(Nc2c3c(cc(=O)n2C)CCN(C2CC2)C3=O)c(F)c1 [Example 4, 2-cyclopropyl-8-((2-fluoro-4-(methylthio)phenyl)amino)-7-methyl-3,4-dihydro-2,7-naphthyridine-1,6(2H,7H)-dione]	26.1	1.3	1.1	74
Cn1c(Nc2ccc(I)cc2F)c2c(cc1=O)CCN(C1CC1)C2=O [Example 5, 2-cyclopropyl-8-((2-fluoro-4-iodophenyl)amino)-7-methyl-3,4-dihydro-2,7-naphthyridine-1,6(2H,7H)-dione]	27.8	1.6	1	20
Cn1c(Nc2ccc(I)cc2Cl)c2c(cc1=O)CCN(OCCO)C2=O [Example 9, 8-((2-chloro-4-iodophenyl)amino)-2-(2-hydroxyethoxy)-7-methyl-3,4-dihydro-2,7-naphthyridine-1,6(2H,7H)-dione]	27.1	7.7	3.2	3
CC(C)c1ccc(Nc2c3c(cc(=O)n2C)CCN(OCCO)C3=O)c(F)c1 [Example 18, 8-((2-fluoro-4-isopropylphenyl)amino)-2-(2-hydroxyethoxy)-7-methyl-3,4-dihydro-2,7-naphthyrdine-1,6(2H,7H)-dione]	–	2.3	2	39
Cc1c2c(c(Nc3ccc(Br)cc3F)n(C)c1=O)C(=O)NCC2 [Example 47, 8-((4-bromo-2-fluorophenyl)amino)-5,7-dimethyl-3,4-dihydro-2,7-naphthyridine-1,6(2H,7H)-dione]	31.5	1.3	–	97
CSc1ccc(Nc2c3c(c(C)c(=O)n2C)CCN(OCCO)C3=O)c(F)c1 [Example 61, 8-((2-fluoro-4-(methylthio)phenyl)amino)-2-(2-hydroxyethoxy)-5,7-dimethyl-3,4-dihydro-2,7-naphthyridine-1,6(2H,7H)-dione]	26.9	3	–	11
Cc1c2c(c(Nc3ccc(OC(F)F)cc3F)n(C)c1=O)C(=O)N(OCCO)CC2 [Example 62, 8-((4-(difluoromethoxy)-2-fluorophenyl)amino)-2-(2-hydroxyethoxy)-5,7-dimethyl-3,4-dihydro-2,7-naphthyridine-1,6(2H,7H)-dione]	26.1	5	–	17
